Consider 16 molecules from ChEMBL document CHEMBL4834442, “Immunosuppressive 9,10-Secosteroids from the Gorgonian Verrucella umbraculum Collected in the South China Sea” (J Nat Prod, 2021).

Activity calls are given as the source filed them. The rule behind the calls is not given here.

In one series the test system is CD4+ve Th. Kind of series: Immunosuppressive activity in C57BL/6 mouse SMNCs-derived CD4+ T cells assessed as inhibition of concanavalinA-stimulated cell proliferation at 1 uM measured after 5 to 7 days by CFSE staining based FACScan flowcytometry. It counts as functional. Particulars: time 5-7 day.
Series [1] is described as follows: Cytotoxicity against C57BL/6 mouse spleen mononuclear cells assessed as cell viability at 0.5 to 1 uM measured after 48 hrs by CCK-8 assay. It counts as cell-based. To be noted: mononuclear cell line, dose 0.5-1 µM. Background: Tetrazolium assays rely on reduction of a dye to a coloured formazan, in cell work by metabolically active cells.

For `Cc1ccc(O)cc1CC[C@@H]1[C@H](O)CC[C@]2(C)[C@@H]([C@H](C)/C=C/CC(C)C)CC[C@@H]12`, the outcome in the series with CD4+ve Th was Active. Also, the Activity entry in series [1] was “Non-Toxic”.

Take `Cc1ccc(O)cc1CC[C@]1(O)[C@H](O)CC[C@]2(C)[C@@H]([C@H](C)CC[C@@H](C)C(C)C)CC[C@H]21`: in the series with CD4+ve Th, the result was Active. Also, in series [1], the Activity result was “Non-Toxic”.

Turning to `Cc1ccc(O)cc1CC[C@]1(O)C(=O)CC[C@]2(C)[C@@H]([C@H](C)/C=C/CC(C)C)CC[C@H]21`, the outcome with CD4+ve Th was Active. Further, the Activity entry in series [1] is given as “Non-Toxic”.

Consider `Cc1ccc(O)cc1CC[C@]1(O)[C@H](O)CC[C@]2(C)[C@@H]([C@H](C)/C=C/[C@@H](C)C(C)C)CC[C@H]21`, for which the result in the series on CD4+ve Th was Active. In series [1], the Activity result is reported as “Non-Toxic”.

For `C/C=C(/CC[C@@H](C)[C@H]1CC[C@@H]2[C@]1(C)CC[C@@H](O)[C@@]2(O)CCc1cc(O)ccc1C)C(C)C`, the outcome with CD4+ve Th was inactive. Further, in series [1], the Activity result is recorded as “Non-Toxic”.

Regarding `Cc1ccc(O)cc1CC[C@@H]1[C@H](O)CC[C@]2(C)[C@@H]([C@H](C)CCCC(C)C)[C@@H](O)C[C@@H]12` [CALICOFEROL B], in the series on CD4+ve Th, the outcome was Active. Besides, the Activity entry in series [1] was “Non-Toxic”.

In the case of `Cc1ccc(O)cc1CC[C@]1(O)C(=O)CC[C@]2(C)[C@@H]([C@H](C)/C=C/[C@@H](C)C(C)C)C[C@@H](O)[C@H]21`, the result in the series with CD4+ve Th was inactive. Further, the Activity result in series [1] is “Non-Toxic”.

For the molecule `Cc1ccc(O)cc1CC[C@]1(O)[C@H](O)CC[C@]2(C)[C@@H]([C@H](C)/C=C/CC(C)C)CC[C@H]21`, the result in the series with CD4+ve Th was Active. Moreover, in series [1], the Activity result is reported as “Non-Toxic”.

For the molecule `C=C(CC[C@@H](C)[C@H]1CC[C@H]2[C@H](CCc3cc(O)ccc3C)[C@H](O)CC[C@]12C)C(C)C` [CALICOFEROL C], the result in the series on CD4+ve Th was Active. For the same molecule, the Activity result in series [1] was “Non-Toxic”.

For `Cc1ccc(O)cc1CC[C@]1(O)C(=O)CC[C@]2(C)[C@@H]([C@H](C)/C=C/[C@@H](C)C(C)C)CC[C@H]21`, the outcome with CD4+ve Th was Active. Also, the Activity entry in series [1] was “Non-Toxic”.

For `CC(C)=CCC[C@@H](C)[C@H]1CC[C@H]2[C@H](CCc3cc(O)ccc3C)[C@H](O)CC[C@]12C` [CALICOFEROL G], in the series with CD4+ve Th, the outcome was Active. The Activity result in series [1] is “Non-Toxic”.

Turning to `Cc1ccc(O)cc1CC[C@]1(O)[C@H](O)CC[C@]2(C)[C@@H]([C@H](C)CC[C@H](C)C(C)C)CC[C@H]21`, in the series with CD4+ve Th, the result was Active. The Activity result in series [1] is “Non-Toxic”.

As for `Cc1ccc(O)cc1CC[C@@H]1[C@H](O)CC[C@]2(C)[C@@H]([C@H](C)CCCC(C)C)CC[C@@H]12` [ASTROGORGIADIOL], the outcome with CD4+ve Th was Active. In series [1], the Activity result was “Non-Toxic”.

With `Cc1ccc(O)cc1CC[C@]1(O)[C@H](O)CC[C@]2(C)[C@@H]([C@H](C)CCCC(C)C)CC[C@H]21`, the result in the series on CD4+ve Th was Active. Further, the Activity result in series [1] is “Non-Toxic”.

As to `Cc1ccc(O)cc1CC[C@@H]1[C@H](O)CC[C@]2(C)[C@@H]([C@H](C)/C=C/[C@@H](C)C(C)C)CC[C@@H]12`, the outcome in the series on CD4+ve Th was Active. Besides, in series [1], the Activity entry is “Non-Toxic”.

With `C=C(CC[C@@H](C)[C@H]1CC[C@@H]2[C@]1(C)CC[C@@H](O)[C@@]2(O)CCc1cc(O)ccc1C)C(C)C`, the result with CD4+ve Th was Active. Besides, the Activity result in series [1] is listed as “Non-Toxic”.
